Data reported in patent publication US20080194585A1, “Fungicidal Pyrazine Derivatives” (priority 2005, published 2008).
Marks after values point to notes of the source that are not given here.

Key:
Plasmopara viticola = assay: Test D: grape downy mildew, spray after inoculation of grape seedlings; type: in vivo
Text: Upon removal, disease ratings were made. […] A dash (-) indicates no test results.

Phytophthora infestans = assay: whole plant or invertebrate; type: in vivo
Septoria tritici = assay: Test J: wheat leaf blotch, preventive spray on wheat seedlings; type: in vivo
Text: A dash (-) indicates no test results.

fusarium graminearium = assay: Test I: wheat head scab, preventive spray on wheat seedlings
Experimental: (the causal agent of wheat head scab) and incubated in a saturated atmosphere at 20° C. for 72 h, and then moved to a growth chamber at 22° C. for 5 days, after which disease ratings were made.

[1] = system: Puccinia recondita f. sp. tritici; assay: Test K: wheat leaf rust, preventive spray on wheat seedlings
Botrytis cinerea = assay: Test E: tomato botrytis, preventive spray on tomato seedlings
Septoria nodorum = assay: Test H: wheat glum blotch, preventive spray on wheat seedlings
Experimental: (the causal agent of wheat glum blotch) and incubated in a saturated atmosphere at 20° C. for 48 h, and then moved to a growth chamber at 22° C. for 5 days, after which disease ratings were made.

[2] = system: Erysiphe graminis f. sp. tritici; assay: Test L: wheat powdery mildew, preventive spray on wheat seedlings
Pythium aphanidermatum = assay: Test A: bluegrass pythium blight, preventive spray on bluegrass seedlings
Rhizoctonia oryzae = assay: Test G: turf brown patch, preventive spray on creeping bent grass seedlings
Experimental: (the causal agent of turf brown patch) and incubated in a saturated atmosphere at 27° C. for 24 h, and then moved to a growth chamber at 27° C. for 5 days, after which disease ratings were made.

[3] = system: Colletotrichum orbiculare; assay: Test B: cucumber Colletotrichum anthracnose, preventive spray on cucumber seedlings; conditions: 40 ppm (marked *); 100 = 100% disease control, 0 = no control
[4] = 40 ppm (marked *), 100 = 100% disease control, 0 = no control
[5] = 200 ppm, 100 = 100% disease control, 0 = no control relative to controls

| Structure (SMILES) | Test D disease control rating (Plasmopara viticola; [4]) | Test F disease control rating (Phytophthora infestans; [4]) | Test J disease control rating (Septoria tritici; [4]) | Test I disease control rating (fusarium graminearium; [4]) | Test K disease control rating [1, 4] | Test H disease control rating (Septoria nodorum; [4]) | Test L disease control rating [2, 4] | Test A disease control rating (Pythium aphanidermatum; [4]) | Test G disease control rating (Rhizoctonia oryzae; [4]) | Test B disease control rating [3] | Test F disease control rating (Phytophthora infestans; [5]) [%] | Test I disease control rating (fusarium graminearium; [5]) [%] | Test E disease control rating (Botrytis cinerea; [4]) | Test A disease control rating (Pythium aphanidermatum; [5]) [%] | other results |
| --- | --- | --- | --- | --- | --- | --- | --- | --- | --- | --- | --- | --- | --- | --- | --- |
| CC(C)(C)Cn1c(-c2c(F)cccc2F)c(Cl)nc(-n2cccn2)c1=O [compound 59] | – | – | – | – | – | – | – | – | – | – | – | – | – | – | Test D disease control rating (Plasmopara viticola; 200 ppm): 0%; Test F disease control rating (Phytophthora infestans; 200 ppm): 0%; Test J disease control rating (Septoria tritici; 40 ppm (*)): 100* %; Test I disease control rating (fusarium graminearium; 200 ppm): 0%; Test K disease control rating ([1]; 40 ppm (*)): 94* %; Test E disease control rating (Botrytis cinerea; 40 ppm (*)): 100* %; Test H disease control rating (Septoria nodorum; 40 ppm (*)): 73* %; Test L disease control rating ([2]; 40 ppm (*)): 98* %; Test A disease control rating (Pythium aphanidermatum; 200 ppm): 0%; Test G disease control rating (Rhizoctonia oryzae; 40 ppm (*)): 49* % |
| Cc1ccn(-c2nc(Cl)c(-c3c(F)cccc3F)n(Cc3ccc(F)cc3)c2=O)n1 [compound 331] | 47* % | 0* % | 100* % | 0* % | 100* % | 100* % | 76* % | 0* % | 16* % | 90* % | – | – | – | – | – |
| Cc1ccc(-n2c(-c3c(F)cccc3F)c(Cl)nc(-n3ccc(C)n3)c2=O)cc1 [compound 332] | 24* % | 0* % | 98* % | 0* % | 95* % | 94* % | 71* % | 0* % | 0* % | 0* % | – | – | – | – | – |
| Cc1ccc(-n2c(-c3c(F)cccc3F)c(Cl)nc(-n3cccn3)c2=O)cc1 [compound 333] | 47* % | 0* % | 98* % | 0* % | 99* % | 99* % | 0* % | 0* % | 17* % | 37* % | – | – | – | – | – |
| Cc1ccc(-n2c(-c3c(F)cccc3F)c(Cl)nc(-n3cccn3)c2=O)c(C)c1 [compound 334] | 0* % | 0* % | 96* % | 0* % | 91* % | – | 0* % | 0* % | 0* % | 0* % | – | – | – | – | Test H disease control rating (Septoria nodorum; 200 ppm, 100 = 100% disease control, 0 = no control): 0% |
| Cc1ccc(-n2c(-c3c(F)cccc3F)c(Cl)nc(-n3ccc(C)n3)c2=O)c(C)c1 [compound 335] | 0* % | 0* % | 99* % | 0* % | 91* % | 98* % | 71* % | 0* % | 0* % | 0* % | – | – | – | – | – |
| O=c1c(-n2cccn2)nc(Cl)c(-c2c(F)cccc2F)n1-c1cccc(F)c1 [compound 337] | 0* % | 0* % | 100* % | 0* % | 95* % | 99* % | 0* % | 0* % | 29* % | 76* % | – | – | – | – | – |
| Cc1ccn(-c2nc(Cl)c(-c3c(F)cccc3F)n(-c3cccc(F)c3)c2=O)n1 [compound 338] | 0* % | 0* % | 98* % | 0* % | 99* % | 100* % | 0* % | 0* % | 16* % | 80* % | – | – | – | – | – |
| O=c1c(-n2cccn2)nc(Cl)c(-c2c(F)cccc2F)n1-c1ccccc1F [compound 339] | 0* % | 0* % | 100* % | 0* % | 89* % | 99* % | 0* % | 0* % | 0* % | 0* % | – | – | – | – | – |
| Cc1ccn(-c2nc(Cl)c(-c3c(F)cccc3F)n(-c3ccccc3F)c2=O)n1 [compound 340] | 0* % | 0* % | 95* % | 0* % | 95* % | 99* % | 0* % | 0* % | 0* % | 0* % | – | – | – | – | – |
| Cc1ccn(-c2nc(Cl)c(-c3c(F)cccc3F)n(Cc3ccc(F)cc3)c2=O)n1 [compound 341] | 79* % | 0* % | 98* % | 0* % | 100* % | 99* % | 63* % | 0* % | 0* % | 52* % | – | – | – | – | – |
| COc1ccccc1-n1c(-c2c(F)cccc2F)c(Cl)nc(-n2cccn2)c1=O [compound 393] | – | – | 33* % | – | 89* % | 73* % | 0* % | – | 0* % | 41* % | 0 | 0 | 29* % | 0 | – |
| COc1cccc(-n2c(-c3c(F)cccc3F)c(Cl)nc(-n3cccn3)c2=O)c1 [compound 394] | – | – | 100* % | – | 100* % | 100* % | 99* % | – | 47* % | 99* % | 0 | 78 | 99* % | 0 | – |
| COc1ccc(-n2c(-c3c(F)cccc3F)c(Cl)nc(-n3cccn3)c2=O)cc1 [compound 395] | – | – | 99* % | – | 99* % | 95* % | 0* % | – | 0* % | 57* % | 0 | 0 | 80* % | 0 | – |
| O=c1c(-n2cccn2)nc(Cl)c(-c2c(F)cccc2F)n1-c1ccccc1OC(F)(F)F [compound 396] | – | – | 85* % | – | 94* % | 89* % | 91* % | – | 0* % | 13* % | 0 | 0 | 70* % | 0 | – |
| O=c1c(-n2cccn2)nc(Cl)c(-c2c(F)cccc2F)n1-c1ccccc1OC(F)(F)F [compound 397] | – | – | 94* % | – | 80* % | 94* % | 0* % | – | 0* % | 37* % | 0 | 0 | 99* % | 0 | – |
| O=c1c(-n2cccn2)nc(Cl)c(-c2c(F)cccc2F)n1-c1ccc(OC(F)(F)F)cc1 [compound 398] | – | – | 97* % | – | 97* % | 75* % | 78* % | – | 24* % | 56* % | 0 | 0 | 98* % | 0 | – |
| O=c1c(-n2cccn2)nc(Cl)c(-c2c(F)cccc2F)n1-c1ccccc1C(F)(F)F [compound 399] | – | – | 100* % | – | 99* % | 90* % | 93* % | – | 24* % | 88* % | 0 | 0 | 97* % | 0 | – |
